Patent publication US9765019B2, “Small-molecule-targeted protein degradation” (Brandeis University, priority 2011, dated 2017)
“Also recorded” adds a separate entry of the source. Residues, ends and D or L forms follow the SMILES beside them. *: point of attachment. Cbz = O=C(OCc1ccccc1)*

Legend:
proteasome = test: Effect of proteasome inhibitors on Boc3Arg-induced degradation (lysates and whole HeLa cells); details: GST-α-1 in cell lysates; eDHFR fusion proteins in HeLa cells
eDHFR-HA-GST-α1 = biological target: T1, eDHFR-HA-GST-α1 (UniProt P08263+P0ABQ4); test: Degradation of eDHFR-HA-GST-α1 ectopically expressed in HeLa cells; type: cell-based; details: for Degradation of eDHFR-HA-GST-α1: cycloheximide treated HeLa cells
T1 construct: expressed in transfected cells; host or cells: HeLa cells
T1 sequence (P0ABQ4+P08263 with tags, fused parts or gaps): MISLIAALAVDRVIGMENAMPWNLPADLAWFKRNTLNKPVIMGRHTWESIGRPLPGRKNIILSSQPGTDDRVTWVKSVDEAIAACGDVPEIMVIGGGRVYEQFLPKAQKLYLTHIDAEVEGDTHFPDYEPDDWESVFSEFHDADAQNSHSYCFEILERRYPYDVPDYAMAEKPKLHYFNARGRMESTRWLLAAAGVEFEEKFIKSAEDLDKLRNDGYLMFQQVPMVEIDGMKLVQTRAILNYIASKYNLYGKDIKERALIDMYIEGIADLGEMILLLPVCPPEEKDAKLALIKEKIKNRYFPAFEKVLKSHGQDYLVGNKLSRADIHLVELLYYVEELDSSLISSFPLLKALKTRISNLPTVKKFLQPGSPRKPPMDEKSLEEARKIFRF
Source text: FIG. 5 depicts degradation of GST-α1-HA in HeLa cell lysates and eDHFR-HA-GST in HeLa cells.

[1] = biological target: T2, human glutathione-S-transferase α-1 (Homo sapiens, UniProt P08263); test: Degradation of pre-inhibited GST-α-1 in cell lysates (Western blot); type: biochemical; details: for Degradation of GST-α-1 in cell lysates: protein pre-treated with inhibitor, lysates from reticulocytes, HeLa, Cos and NIH 3T3 cells
T2 construct: HA (N); made in house; host or cells: Escherichia coli (pOXO4-α1 vector)
T2 sequence (P08263 1-222): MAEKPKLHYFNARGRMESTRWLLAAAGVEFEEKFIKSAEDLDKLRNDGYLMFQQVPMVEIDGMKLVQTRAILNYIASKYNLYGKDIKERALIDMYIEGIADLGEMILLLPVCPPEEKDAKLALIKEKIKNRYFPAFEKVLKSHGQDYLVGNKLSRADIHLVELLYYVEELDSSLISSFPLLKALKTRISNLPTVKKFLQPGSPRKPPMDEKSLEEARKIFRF
Method: The gel was transferred onto a polyvinyldifluoride membrane in Towbin (3 g Tris/14.4 g glycine) buffer, 100V for 1.2 hours then 40V for 3 hours for 18% gels, and 100 V for 1.2 hours for 12% gels. The membrane was blocked with 3% non-fat milk in Tris buffered saline (100 mM Tris base, 500 mM NaCl, pH 7.6) for one hour, then directly added to a solution of anti HA-HRP conjugated antibody in 0.5% non-fat milk in Tris buffered saline with 0.05% tween-20 for 2 hours. Membrane was washed twice with Tris buffered saline with 0.05% Tween 20 for 10 minutes, then washed once with Tris buffered saline for 15 minutes. The residual buffer was removed then exposed to ECL Plus™ (GE healthcare) for 5 minutes. Membrane was visualized by exposure to film (HyBlot CL, Denville Scientific). For in cell degradation assays, the membrane was cut in half (at approximately 40 kiloDaltons) and the lower molecular weight portion was probed and visualized with anti-GAPDH-HRP, protocol same as for anti-HA except Tris buffered saline contained 150 mM NaCl, not 500 mM. The higher molecular weight portion of the membrane was probed and visualized with anti-HA-HRP.
Human glutathione-S-transferase α-1 bearing an N-terminal HA tag was recombinantly expressed in Escherichia coli using the pOXO4-α1 vector. This was purified using glutathione affinity chromatography (GST-Bind™, Novagen). Escherichia coli dihydrofolate reductase bearing an N-terminal (His)6 tag and a C-terminal HA tag was recombinantly expressed in Escherichia coli using a pET28a vector. This was purified using Ni-NTA resin (Qiagen).
The cells were then serum starved for 2 days in the case of Cos and HeLa cells and 1 day in the case of NIH3T3 cells. The cells were washed with phosphate buffered saline and then trypsinized. Cells were collected, and an equal volume of complete medium was added. Cells were pelleted by centrifugation and the supernatant was aspirated. The cell pellet was washed three times with phosphate buffered saline. Cell pellets were stored at −80° C. until required. Cells were thawed on ice and maintained at 4° C. until required for the assay. […] The cells were lysed in a Dounce homogenizer (10 strokes), and then centrifuged at 14000 rpm for 30 minutes. The clarified lysate was normalized to an optimized concentration of 1 mg/mL (Bradford assay, Biorad®, as per manufacturer's instructions, using immunoglobulin as a standard) with lysis buffer. A 10×ATP regeneration buffer was made consisting of the following 1 mg/mL creatine kinase (Roche Diagnostics®), 600 mM creatine phosphate, 100 mM ATP, 200 mM Tris pH 8.0, 600 mM MgCl2. This was incubated at 37° C. for 30 minutes prior to use. Assays were conducted in […] total volume [including 1×ATP regeneration buffer, and 120 ng of HA-tagged protein (1 μL) preinhibited with 100 μM ethacrynic acid-derived inhibitor, or 1 μM trimethoprim-derived inhibitor] in 250 μL PCR tubes. Prior to assay 50 μL Chill Out wax (Biorad®) was overlaid on the top of the vial. 15 μL aliquots were extracted and diluted into 6 μL of 5× reducing SDS PAGE loading buffer and immediately frozen by being placed into dry ice. These were stored at −80° C. until required. Samples were thawed at 100° C. and continued to be boiled for 5 minutes. The samples were then centrifuged at 14,000 rpm on a microcentrifuge for 30 minutes and loaded onto an 18% polyacrylamide SDS PAGE gel, and Western blotted as per Example 2.

eDHFR-HA-GFP = eDHFR-HA-GFP (Escherichia coli, UniProt P0ABQ4); details: transfected HeLa cells
Method: FIG. 6 depicts degradation of eDHFR-HA in cell lysates and degradation of eDHFR fusion proteins in HeLa cells. (A) Degradation of eDHFR in HeLa cells lysates; (B) quantification of panel (A); (C) Global protein stability (GPS) assay. Cells co-express red fluorescent protein (RFP) and DHFR-HA-GFP from a bicistronic construct. Red and green fluorescence was measured by flow cytometry.
Protein degradation in whole cells was also assessed. eDHFR-HA-GFP was co-expressed with Discosoma sp. red fluorescent protein (RFP) in a bicistronic construct under control of a CMV promoter, with DHFR-HA-GFP translation occurring at the internal ribosome binding site. Thus a single mRNA is responsible for the production of both RFP and DHFR-HA-GFP, so that similar ratios of both proteins should be produced in all transfected cells. Changes in the relative intensities of red and green fluorescence are measured by flow cytometry, providing a facile and quantitative measure of the degradation of DHFR-HA-GFP in living cells and real time.
Cells were grown to 90% confluence in Dulbecco's Modified Minimal Essential Medium supplemented with 10% fetal bovine serum, 1×L-glutamine with no antibiotic in a 6 well plate. At this point the cells were serum starved, and then transfected using […] plasmid (expression driven by the cytomegalovirus promoter; gene coding for enhanced green fluorescent protein fused to the C-terminus of E. coli dihydrofolate reductase): 2 μL Transfectin™ (Biorad) per well. 48 hours after transfection, media was once again aspirated, and fresh serum free media was added. Cycloheximide (final concentration 100 μg/mL) was then added to the cells and after 5 minutes, 30 μM inhibitor was added. At each time point (45 minutes), media was aspirated, cells were trypsinized, centrifuged and washed three times with phosphate buffered saline. Cell pellets were flash frozen in dry ice, and then stored indefinitely at −80° C. The cells were thawed on ice, and then resuspended in lysis buffer (150 mM sucrose, 200 mM sodium phosphate, 43 mM MgCl2, pH 7.8, 0.1% triton X-100). Cells were lysed by two freeze/thaw cycles (−80° C. for 5 minutes, then 4° C. for 10 minutes). Lysate concentrations were normalized by dilution with lysis buffer such that they gave the same A595 when diluted into Bradford assay dye (Biorad).

endogenous GST-π = test: Degradation of endogenous GST-π in whole cells (immunoblot); type: cell-based; details: two hours
Method: FIG. 12 depicts degradation of endogenous GST-π. Cells were incubated with EA-Boc3Arg for 2 hours. Degradation was monitored by immuno-blotting with anti-GST antibodies. EA=right bar; EA-Boc3-Arg=left bar.
The ability of EA-Boc3Arg to degrade endogenous GST-π in the context of whole cells was also investigated. […] The Boc3Arg moiety can regulate endogenous protein levels in vivo.

CC(C)C[C@@H](C=O)NC(=O)[C@H](CC(C)C)NC(=O)[C@H](CC(C)C)NC(=O)OCc1ccccc1 [MG 132] (Cbz-Leu-Leu-Leu-aldehyde)
Effect on Boc3Arg-induced degradation (proteasome): block; also recorded: prevent degradation

C=C(CC)C(=O)c1ccc(OCC(=O)O)c(Cl)c1Cl [EA, ethacrynic acid, reference compound]
Degradation of eDHFR-HA-GST-α1 (eDHFR-HA-GST-α1): does not
Degradation of GST-α-1 in cell lysates [1]: No degradation was observed

Cc1cc(C(=O)CN2CCCC2)c(C)n1-c1ccc(F)cc1 [PU1, reference compound]
Effect on degradation of eDHFR-HA-GFP (eDHFR-HA-GFP): slower

CC(C)(C)OC(=O)N=C(NCCCC(NC(=O)OC(C)(C)C)C(=O)NCCCCCCSc1ccc([N+](=O)[O-])c2nonc12)NC(=O)OC(C)(C)C (centres unmarked) [Fur-Boc3Arg, 5-(2,3-Di-tert-butoxycarbonylguanidino)-2-(tert-butoxycarbonylamino)-N-(6-(7-nitrobenzo[c][1,2,5]oxadiazol-4-ylthio)hexyl)pentan amide]
Degradation of Fur-Boc3Arg-modified GST-α-1 ([1]; NIH 3T3 cell lysates): readily degraded; also recorded: induces the degradation

CC(C)C[C@H](NC(=O)[C@H](Cc1ccccc1)NC(=O)c1cnccn1)B(O)O [bortezomib]
Effect on degradation of eDHFR-HA-GFP (eDHFR-HA-GFP): slower
Effect on degradation of eDHFR-HA-GST-α1 by EA-Boc3Arg (eDHFR-HA-GST-α1; cycloheximide and non-cycloheximide treated HeLa cells): retards degradation
Effect on Boc3Arg-induced degradation (proteasome): block; also recorded: prevent degradation

CC(=O)N[C@@H](CSC(=O)[C@]1([C@@H](O)C(C)C)NC(=O)[C@H](C)[C@@H]1O)C(=O)O [lactacystin]
Effect on Boc3Arg-induced degradation (proteasome): block

C=C(CC)C(=O)c1ccc(OCC(=O)NCCCCCCNC(=O)C(CCCNC(=NC(=O)OC(C)(C)C)NC(=O)OC(C)(C)C)NC(=O)OC(C)(C)C)c(Cl)c1Cl (centres unmarked) [EA-Boc3Arg, N-(6-(2-(2,3-Dichloro-4-(2-methylenebutanoyl)phenoxy)acetamido)hexyl)-5-(2,3-di-t-butoxycarbonylguanidino)-2-(t-butoxycarbonylamino)pentanamide]
Degradation of eDHFR-HA-GST-α1 (eDHFR-HA-GST-α1): can cause degradation
depletion in the GST-π signal (endogenous GST-π): 30%
Degradation of GST-α-1 in cell lysates [1]: Degradation was observed
Degradation of GST-α-1 in cell lysates ([1]; listed as 1): promotes the degradation

C=C(CC)C(=O)c1ccc(OCC(=O)NCCCCCCNC(=O)C(CCCNC(=N)NS(=O)(=O)c2ccc(C)cc2)NOC(=O)Cc2ccccc2)c(Cl)c1Cl (centres unmarked) [Compound 2, N-(6-(2-(2,3-Dichloro-4-(2-methylenebutanoyl)phenoxy)acetamido)hexyl)-2-(benzylcarbonyloxyamino)-5-(3-tosylguanidino)pentanamide]
Degradation of GST-α-1 in cell lysates [1]: functional degradation tag
